Measured values published in ChEMBL document CHEMBL1909294, “Translating clinical findings into knowledge in drug safety evaluation--drug induced liver injury prediction system (DILIps)” (PLoS Comput Biol, 2011).
Where a SMILES comes first, the peptide text is derived from it. Bridges are numbered along the chain shown (N, C = ends). [ ]: non-standard residue; d: D form. hArg = N=C(N)NCCCC[C@H](N)C(=O)O; Mpa = O=C(O)CCS

Columns and labels:
[1] = system: Hepatotoxicity;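 as to HepSE bilirubinemia: bilirubinemia hepatic side effect score drawn from the DILIps training data, a prediction system for drug-induced liver injury; call rule not given here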;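 as to HepSE cholecystitis: Cholecystitis-related hepatic side effect score drawn from the DILIps (drug-induced liver injury prediction) training data set; call rule not given here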;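 as to HepSE cholelithiasis: hepatic side effect score for cholelithiasis, drawn from the DILIps training data for predicting drug-induced liver injury; call rule not given here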;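 as to HepSE cirrhosis: cirrhosis hepatic side effect score taken from the DILIps (drug-induced liver injury prediction) training set; call rule not given here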;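 as to HepSE elevated liver function tests: hepatic side effect score for raised liver function tests, as recorded in the DILIps training set used for predicting drug-induced liver injury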; as to HepSE hepatic failure: call rule not given here;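 as to HepSE hepatomegaly: hepatic side effect score for hepatomegaly, taken from the training set of the DILIps drug-induced liver injury prediction system; call rule not given here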
[2] = system: Hepatotoxicity; remark: listed apart in the source;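 as to HepSE bilirubinemia: bilirubinemia hepatic side effect score drawn from the DILIps training data, a prediction system for drug-induced liver injury; call rule not given here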;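 as to HepSE cholecystitis: Cholecystitis-related hepatic side effect score drawn from the DILIps (drug-induced liver injury prediction) training data set; call rule not given here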;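 as to HepSE cholelithiasis: hepatic side effect score for cholelithiasis, drawn from the DILIps training data for predicting drug-induced liver injury; call rule not given here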;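 as to HepSE cirrhosis: cirrhosis hepatic side effect score taken from the DILIps (drug-induced liver injury prediction) training set; call rule not given here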;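 as to HepSE elevated liver function tests: hepatic side effect score for raised liver function tests, as recorded in the DILIps training set used for predicting drug-induced liver injury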; as to HepSE hepatic failure: call rule not given here
[3] = system: Hepatotoxicity; remark: listed apart in the source;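 as to HepSE bilirubinemia: bilirubinemia hepatic side effect score drawn from the DILIps training data, a prediction system for drug-induced liver injury; call rule not given here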;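 as to HepSE cholecystitis: Cholecystitis-related hepatic side effect score drawn from the DILIps (drug-induced liver injury prediction) training data set; call rule not given here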;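 as to HepSE cholelithiasis: hepatic side effect score for cholelithiasis, drawn from the DILIps training data for predicting drug-induced liver injury; call rule not given here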;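 as to HepSE cirrhosis: cirrhosis hepatic side effect score taken from the DILIps (drug-induced liver injury prediction) training set; call rule not given here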;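 as to HepSE elevated liver function tests: hepatic side effect score for raised liver function tests, as recorded in the DILIps training set used for predicting drug-induced liver injury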; as to HepSE hepatic failure: call rule not given here
[4] = system: Hepatotoxicity; remark: listed apart in the source;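 as to HepSE bilirubinemia: bilirubinemia hepatic side effect score drawn from the DILIps training data, a prediction system for drug-induced liver injury; call rule not given here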;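 as to HepSE cholecystitis: Cholecystitis-related hepatic side effect score drawn from the DILIps (drug-induced liver injury prediction) training data set; call rule not given here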;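 as to HepSE cholelithiasis: hepatic side effect score for cholelithiasis, drawn from the DILIps training data for predicting drug-induced liver injury; call rule not given here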;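 as to HepSE cirrhosis: cirrhosis hepatic side effect score taken from the DILIps (drug-induced liver injury prediction) training set; call rule not given here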;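 as to HepSE elevated liver function tests: hepatic side effect score for raised liver function tests, as recorded in the DILIps training set used for predicting drug-induced liver injury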; as to HepSE hepatic failure: call rule not given here
[5] = system: Hepatotoxicity; remark: listed apart in the source; as to HepSE hepatic failure: call rule not given here
[6] = system: Hepatotoxicity; remark: listed apart in the source; as to HepSE hepatic failure: call rule not given here
[7] = system: Hepatotoxicity; remark: listed apart in the source
[8] = system: Hepatotoxicity; remark: listed apart in the source
[9] = system: Hepatotoxicity; remark: listed apart in the source
[10] = system: Hepatotoxicity; remark: listed apart in the source
[11] = system: Hepatotoxicity; remark: listed apart in the source
[12] = system: Hepatotoxicity; remark: listed apart in the source
[13] = system: Hepatotoxicity; remark: listed apart in the source
[14] = system: Hepatotoxicity; remark: listed apart in the source

SMILES	HepSE_bilirubinemia [1]	HepSE_cholecystitis [2]	HepSE_cholelithiasis [3]	HepSE_cirrhosis [4]	HepSE_elevated liver function tests [5]	HepSE_hepatic failure [6]	HepSE_hepatic necrosis [7]	HepSE_hepatitis [8]	HepSE_hepatomegaly [9]	HepSE_jaundice [10]	HepSE_liver disease [11]	HepSE_liver fatty [12]	HepSE_liver function tests abnormal [13]	HepSE_Combined Scores [14]	also measured
N=C(N)NCCCC[C@@H]1NC(=O)CCSSC[C@@H](C(N)=O)NC(=O)[C@@H]2CCCN2C(=O)[C@H](Cc2c[nH]c3ccccc23)NC(=O)[C@H](CC(=O)O)NC(=O)CNC1=O [EPTIFIBATIDE] ([Mpa][hArg]GDWPC-NH2; disulfide 1-7)	0	0	0	0	0	0	0	0	0	0	0	0	0	0	–
CN1C(CSCC(F)(F)F)Nc2cc(Cl)c(S(N)(=O)=O)cc2S1(=O)=O (stereo not drawn) [POLYTHIAZIDE]	0	0	0	0	0	0	0	0	0	1	0	0	0	1	–
CCN(CC)CC#CCOC(=O)C(O)(c1ccccc1)C1CCCCC1 (stereo not drawn) [OXYBUTYNIN]	0	0	0	0	0	0	0	0	0	0	0	0	1	1	–
CN(C)CCOc1ccc(/C(=C(/CCCl)c2ccccc2)c2ccccc2)cc1 [TOREMIFENE]	0	0	0	0	0	0	0	0	0	1	0	0	1	2	–
C=C1CC[C@H](O)C/C1=C/C=C1\CCC[C@]2(C)[C@@H]([C@H](C)CCCC(C)C)CC[C@@H]12 [CHOLECALCIFEROL]	0	0	0	0	0	0	0	0	0	0	0	0	0	0	–
CN1C[C@H](C(=O)N[C@]2(C)O[C@@]3(O)[C@@H]4CCCN4C(=O)[C@H](Cc4ccccc4)N3C2=O)C=C2c3cccc4[nH]cc(c34)C[C@H]21 [ERGOTAMINE]	0	0	0	0	0	0	0	0	0	0	0	0	0	0	–
FC(F)OC(Cl)C(F)(F)F (stereo not drawn) [ISOFLURANE]	0	0	0	0	0	1	1	1	0	1	0	0	0	4	–
COc1cc(C)c(/C=C/C(C)=C/C=C/C(C)=C/C(=O)O)c(C)c1C [ACITRETIN]	0	0	0	0	1	0	0	1	0	1	0	0	0	3	–
NC(CO)(CO)CO [TROMETHAMINE]	–	–	–	–	–	–	–	–	–	–	–	–	–	–	HepSE_bilirubinemia ([1]; Liver): 0; HepSE_cholecystitis ([2]; Liver): 0; HepSE_cholelithiasis ([3]; Liver): 0; HepSE_cirrhosis ([4]; Liver): 0; HepSE_elevated liver function tests ([5]; Liver): 0; HepSE_hepatic failure ([6]; Liver): 0; HepSE_hepatic necrosis ([7]; Liver): 0; HepSE_hepatitis ([8]; Liver): 0; HepSE_hepatomegaly ([9]; Liver): 0; HepSE_jaundice ([10]; Liver): 0; HepSE_liver disease ([11]; Liver): 0; HepSE_liver fatty ([12]; Liver): 0; HepSE_liver function tests abnormal ([13]; Liver): 0; HepSE_Combined Scores ([14]; Liver): 0
CC(N)C12CC3CC(CC(C3)C1)C2 (stereo not drawn) [RIMANTADINE]	0	0	0	0	0	0	0	0	0	0	0	0	0	0	–
C=C[C@H]1C[N@@]2CC[C@H]1C[C@@H]2[C@@H](O)c1ccnc2ccc(OC)cc12 [QUINIDINE]	0	0	0	0	0	0	0	1	0	1	0	0	1	3	–
CCCNC(C)C(=O)Nc1c(C)csc1C(=O)OC (stereo not drawn) [ARTICAINE]	0	0	0	0	0	0	0	0	0	0	0	0	0	0	–
Cc1ccc(C)c(OCCCC(C)(C)C(=O)O)c1 [GEMFIBROZIL]	0	1	1	0	0	0	0	0	0	1	0	0	1	4	–
C[C@]12COC(=O)C[C@@H]1CC[C@@H]1[C@@H]2CC[C@@]2(C)[C@H]1CC[C@]2(C)O [OXANDROLONE]	0	0	0	0	0	0	1	0	0	1	0	0	0	2	–
COc1cc2c(cc1OC)[C@@H](Cc1cc(OC)c(OC)c(OC)c1)[N+](C)(CCCOC(=O)CC/C=C/CCC(=O)OCCC[N+]1(C)CCc3cc(OC)c(OC)cc3[C@H]1Cc1cc(OC)c(OC)c(OC)c1)CC2 (stereo partly drawn)	0	0	0	0	0	0	0	0	0	0	0	0	0	0	–
CC(C)CN(C[C@@H](O)[C@H](Cc1ccccc1)NC(=O)O[C@H]1CO[C@H]2OCC[C@H]21)S(=O)(=O)c1ccc(N)cc1	1	0	0	1	0	1	0	1	0	1	0	0	0	5	–
CN(C)CCCC1(c2ccc(F)cc2)OCc2cc(C#N)ccc21 (stereo not drawn) [CITALOPRAM]	1	1	1	0	0	1	1	1	0	1	0	0	0	7	–
